In PubChem BioAssay AID2060625 (Molecular Pharmacology Branch, DTP, NCI, 2025):
Several values for one entry are separate records, joined by “and”; a condition that tells them apart may be missing. Equal values may be shown once.

Tested on: 186277-243-T-J2-PDC spheroids with HUVEC/MSC, viability
Assay: Anticancer human tumor 186277-243-T-J2-PDC patient-derived colon adenocarcinoma cell line growth inhibition [CLK]
Conditions: for viability, T/C: stronger effect = lower value
Procedure, shortened: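 Multi-cell-type spheroids combined patient-derived tumor cells with HUVEC endothelial cells and human mesenchymal stem cells. Paired agents were dosed in half-log steps down from about clinical Cmax, or from 10 microM where Cmax was unknown.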

[1] = curve of first compound, second compound 0.0316 µM
[2] = curve of first compound, second compound 0.1 µM
[3] = curve of first compound, second compound 0.316 µM
[4] = curve of first compound, second compound 1 µM
[5] = curve of first compound, second compound 3.16 µM
[6] = curve of first compound, second compound 10 µM
[7] = second compound 0.0316 µM, first compound 0.0316 µM
[8] = second compound 0.0316 µM, first compound 0.1 µM
[9] = second compound 0.0316 µM, first compound 0.316 µM
[10] = second compound 0.0316 µM, first compound 1 µM
[11] = second compound 0.0316 µM, first compound 3.16 µM
[12] = second compound 0.0316 µM, first compound 10 µM
[13] = second compound 0.1 µM, first compound 0.0316 µM
[14] = second compound 0.1 µM, first compound 0.1 µM
[15] = second compound 0.1 µM, first compound 0.316 µM
[16] = second compound 0.1 µM, first compound 1 µM
[17] = second compound 0.1 µM, first compound 3.16 µM
[18] = second compound 0.1 µM, first compound 10 µM
[19] = second compound 0.316 µM, first compound 0.0316 µM
[20] = second compound 0.316 µM, first compound 0.1 µM
[21] = second compound 0.316 µM, first compound 0.316 µM
[22] = second compound 0.316 µM, first compound 1 µM
[23] = second compound 0.316 µM, first compound 3.16 µM
[24] = second compound 0.316 µM, first compound 10 µM
[25] = second compound 1 µM, first compound 0.0316 µM
[26] = second compound 1 µM, first compound 0.1 µM
[27] = second compound 1 µM, first compound 0.316 µM
[28] = second compound 1 µM, first compound 1 µM
[29] = second compound 1 µM, first compound 3.16 µM
[30] = second compound 1 µM, first compound 10 µM
[31] = second compound 3.16 µM, first compound 0.0316 µM
[32] = second compound 3.16 µM, first compound 0.1 µM
[33] = second compound 3.16 µM, first compound 0.316 µM
[34] = second compound 3.16 µM, first compound 1 µM
[35] = second compound 3.16 µM, first compound 3.16 µM
[36] = second compound 3.16 µM, first compound 10 µM
[37] = second compound 10 µM, first compound 0.0316 µM
[38] = second compound 10 µM, first compound 0.1 µM
[39] = second compound 10 µM, first compound 0.316 µM
[40] = second compound 10 µM, first compound 1 µM
[41] = second compound 10 µM, first compound 3.16 µM
[42] = second compound 10 µM, first compound 10 µM
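Also: compound exposure lasted seven days before readout.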
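For viability, T/C in this document: 100% = DMSO vehicle control wells.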

C=CC(=O)Nc1cc(Nc2nccc(-c3cn(C)c4ccccc34)n2)c(OC)cc1N(C)CCN(C)C + CNC(=O)c1ccc(Nc2nc(OC3CCCC3)c3c(-c4ccc5nc(C)oc5c4)c[nH]c3n2)c(OC)c1
IC50 [1]: > 300 nM
IC50 [2]: 203 nM
IC50 [3]: < 0.949 nM
IC50 [4]: < 0.949 nM
IC50 [5]: < 0.949 nM
IC50 [6]: < 0.949 nM
viability, T/C (second compound 0.0316 µM, first compound 0.000949 µM): 118%
viability, T/C (second compound 0.0316 µM, first compound 0.003 µM): 109%
viability, T/C (second compound 0.0316 µM, first compound 0.00949 µM): 101%
viability, T/C (second compound 0.0316 µM, first compound 0.03 µM): 93.7%
viability, T/C (second compound 0.0316 µM, first compound 0.0949 µM): 97.9%
viability, T/C (second compound 0.0316 µM, first compound 0.3 µM): 101%
viability, T/C (second compound 0.1 µM, first compound 0.000949 µM): 84.3%
viability, T/C (second compound 0.1 µM, first compound 0.003 µM): 76.1%
viability, T/C (second compound 0.1 µM, first compound 0.00949 µM): 73.1%
viability, T/C (second compound 0.1 µM, first compound 0.03 µM): 68%
viability, T/C (second compound 0.1 µM, first compound 0.0949 µM): 57.4%
viability, T/C (second compound 0.1 µM, first compound 0.3 µM): 46%
viability, T/C (second compound 0.316 µM, first compound 0.000949 µM): 48.7%
viability, T/C (second compound 0.316 µM, first compound 0.003 µM): 46.7%
viability, T/C (second compound 0.316 µM, first compound 0.00949 µM): 45%
viability, T/C (second compound 0.316 µM, first compound 0.03 µM): 43.4%
viability, T/C (second compound 0.316 µM, first compound 0.0949 µM): 39.4%
viability, T/C (second compound 0.316 µM, first compound 0.3 µM): 24.1%
viability, T/C (second compound 1 µM, first compound 0.000949 µM): 37.4%
viability, T/C (second compound 1 µM, first compound 0.003 µM): 36.5%
viability, T/C (second compound 1 µM, first compound 0.00949 µM): 32.7%
viability, T/C (second compound 1 µM, first compound 0.03 µM): 30.3%
viability, T/C (second compound 1 µM, first compound 0.0949 µM): 27%
viability, T/C (second compound 1 µM, first compound 0.3 µM): 18.1%
viability, T/C (second compound 3.16 µM, first compound 0.000949 µM): 36.3%
viability, T/C (second compound 3.16 µM, first compound 0.003 µM): 33.5%
viability, T/C (second compound 3.16 µM, first compound 0.00949 µM): 32.3%
viability, T/C (second compound 3.16 µM, first compound 0.03 µM): 28.6%
viability, T/C (second compound 3.16 µM, first compound 0.0949 µM): 24.8%
viability, T/C (second compound 3.16 µM, first compound 0.3 µM): 17.4%
viability, T/C (second compound 10 µM, first compound 0.000949 µM): 37.2%
viability, T/C (second compound 10 µM, first compound 0.003 µM): 35.6%
viability, T/C (second compound 10 µM, first compound 0.00949 µM): 33%
viability, T/C (second compound 10 µM, first compound 0.03 µM): 32.4%
viability, T/C (second compound 10 µM, first compound 0.0949 µM): 29.3%
viability, T/C (second compound 10 µM, first compound 0.3 µM): 21.1%

Cn1ncnc1[C@H]1c2n[nH]c(=O)c3cc(F)cc(c23)N[C@@H]1c1ccc(F)cc1
viability, T/C (compound 0.000316 µM): 99.8% and 98.2%
viability, T/C (compound 0.001 µM): 73.1% and 89.7%
viability, T/C (compound 0.00316 µM): 109% and 110%
viability, T/C (compound 0.01 µM): 100% and 103%
viability, T/C (compound 0.0316 µM): 115% and 127%
viability, T/C (compound 0.1 µM): 121% and 134%
IC50 (curve of compound): > 100 nM

O=c1[nH]cc(F)c(=O)[nH]1
viability, T/C (compound 0.0316 µM): 99.2% and 100%
viability, T/C (compound 0.1 µM): 84.2% and 98.6%
viability, T/C (compound 0.316 µM): 99% and 94.5%
viability, T/C (compound 1 µM): 93.7% and 97%
viability, T/C (compound 3.16 µM): 108% and 102%
viability, T/C (compound 10 µM): 65.2% and 63%
IC50 (curve of compound): > 10000 nM

CNC(=O)c1ccc(Nc2nc(OC3CCCC3)c3c(-c4ccc5nc(C)oc5c4)c[nH]c3n2)c(OC)c1
viability, T/C (compound 0.1 µM): 67.9% [middle of 12 runs]
viability, T/C (compound 0.316 µM): 46.2% [middle of 12 runs]
viability, T/C (compound 1 µM): 33% [middle of 12 runs]
viability, T/C (compound 3.16 µM): 32.1% [middle of 12 runs]
viability, T/C (compound 10 µM): 33.9% [middle of 11 runs]
IC50 (compound alone, run of 08/15/2023): 241 nM [middle of 12 runs]

C=C(F)C(=O)N1CCN(c2nc(OCC3CCCN3C)nc3c2CCN(c2cccc4cccc(Cl)c24)C3)CC1CC#N (stereo unspecified) + CN1CCN(c2cc(C(=O)Nc3cc4cc(-c5cnn(C)c5)ccc4cn3)ccn2)CC1
IC50 [1]: 6630 nM
IC50 [2]: 5050 nM
IC50 [3]: < 31.6 nM
IC50 [4]: < 31.6 nM
IC50 [5]: < 31.6 nM
IC50 [6]: < 31.6 nM
viability, T/C [7]: 84.2%
viability, T/C [8]: 78.5%
viability, T/C [9]: 115%
viability, T/C [10]: 90.6%
viability, T/C [11]: 106%
viability, T/C [12]: 24.9%
viability, T/C [13]: 82.7%
viability, T/C [14]: 76.7%
viability, T/C [15]: 81.4%
viability, T/C [16]: 95.8%
viability, T/C [17]: 83.5%
viability, T/C [18]: 1.11%
viability, T/C [19]: 25.1%
viability, T/C [20]: 27.1%
viability, T/C [21]: 30%
viability, T/C [22]: 35%
viability, T/C [23]: 32%
viability, T/C [24]: 1.64%
viability, T/C [25]: 1.65%
viability, T/C [26]: 0.34%
viability, T/C [27]: 1.16%
viability, T/C [28]: 0.32%
viability, T/C [29]: 0.22%
viability, T/C [30]: 2.22%
viability, T/C [31]: 1.31%
viability, T/C [32]: 1.53%
viability, T/C [33]: 1.42%
viability, T/C [34]: 1.35%
viability, T/C [35]: 1.01%
viability, T/C [36]: 1.05%
viability, T/C [37]: 0.68%
viability, T/C [38]: 1%
viability, T/C [39]: 1.19%
viability, T/C [40]: 0.79%
viability, T/C [41]: 1.52%
viability, T/C [42]: 0.2%

CC(=O)O[C@H]1C(=O)[C@@]2(C)[C@H]([C@H](OC(=O)c3ccccc3)[C@]3(O)C[C@H](OC(=O)[C@H](O)[C@@H](NC(=O)c4ccccc4)c4ccccc4)C(C)=C1C3(C)C)[C@]1(OC(C)=O)CO[C@@H]1C[C@@H]2O + CNC(=O)c1ccc(Nc2nc(OC3CCCC3)c3c(-c4ccc5nc(C)oc5c4)c[nH]c3n2)c(OC)c1
IC50 [1]: 260 nM
IC50 [2]: > 10000 nM
IC50 [3]: < 31.6 nM
IC50 [4]: < 31.6 nM
IC50 [5]: < 31.6 nM
IC50 [6]: < 31.6 nM
viability, T/C [7]: 73.2%
viability, T/C [8]: 73.2%
viability, T/C [9]: 45.2%
viability, T/C [10]: 26.3%
viability, T/C [11]: 27.7%
viability, T/C [12]: 59.1%
viability, T/C [13]: 64.4%
viability, T/C [14]: 85.1%
viability, T/C [15]: 128%
viability, T/C [16]: 142%
viability, T/C [17]: 156%
viability, T/C [18]: 166%
viability, T/C [19]: 40.4%
viability, T/C [20]: 64%
viability, T/C [21]: 96%
viability, T/C [22]: 105%
viability, T/C [23]: 110%
viability, T/C [24]: 94.6%
viability, T/C [25]: 31.5%
viability, T/C [26]: 44.1%
viability, T/C [27]: 53.2%
viability, T/C [28]: 53.3%
viability, T/C [29]: 61%
viability, T/C [30]: 65.5%
viability, T/C [31]: 32.4%
viability, T/C [32]: 44.6%
viability, T/C [33]: 40.2%
viability, T/C [34]: 48.4%
viability, T/C [35]: 44.7%
viability, T/C [36]: 50%
viability, T/C [37]: 30.1%
viability, T/C [38]: 36.4%
viability, T/C [39]: 41%
viability, T/C [40]: 39.5%
viability, T/C [41]: 45.2%
viability, T/C [42]: 47.6%
